Target: human IDO1 (Homo sapiens, UniProt P14902)
Experiment: Assessment of human IDO-1 inhibitory activity in Hela cells (Interferon-gamma activated, Ehrlich reagent, absorbance at 490 nm)
Format: cell-based
Parameters: endogenous in cells; host or cells: HeLa cells stimulated with interferon-gamma
Details: 18 hours
Description: Exemplary compounds were tested for inhibition of IDO activity.
HeLa cells were seeded at 20,000 cells per 30 µL per well with RPMI/phenol red free media containing 10% FBS in a 384-well tissue culture plate (black with clear bottoms). 50 nL of compound was added to cells and incubated at 37° C. for one hour. 20 μL of the recombinant human Interferon-gamma (R&D System, Cat. #285-IF, at final concentration of 10 ng/ml) or recombinant murine Interferon-gamma (PEPROTECH® Inc., Cat. #315-05, final concentration of 5 ng/ml) was added to activate IDO signaling. The cells were incubated for 18 hours in 37° C. incubator with 5% CO2.
Compound treatment was stopped by adding 5 μl trichloroacetic acid to a final concentration of 3%. Subsequently, the cell plate was further incubated at 50° C. for 30 minute. An equal volume supernatant (20 μL) and 2% (w/v) Ehrlich reagent (4-dimethylaminobenzaldehyde) in glacial acetic acid were mixed in a new clear bottom 384-well plate. This plate was incubated at room temperature for 30 minutes. Absorbance at 490 nm was measured on Envision plate reader.
Compound IC50 values were calculated using counts from unstimulated (no INF-gamma treatment) wells as 100% inhibition. INF-gamma treatment without compound treatment as 0% inhibition.

human IDO1, sequence (P14902 whole entry): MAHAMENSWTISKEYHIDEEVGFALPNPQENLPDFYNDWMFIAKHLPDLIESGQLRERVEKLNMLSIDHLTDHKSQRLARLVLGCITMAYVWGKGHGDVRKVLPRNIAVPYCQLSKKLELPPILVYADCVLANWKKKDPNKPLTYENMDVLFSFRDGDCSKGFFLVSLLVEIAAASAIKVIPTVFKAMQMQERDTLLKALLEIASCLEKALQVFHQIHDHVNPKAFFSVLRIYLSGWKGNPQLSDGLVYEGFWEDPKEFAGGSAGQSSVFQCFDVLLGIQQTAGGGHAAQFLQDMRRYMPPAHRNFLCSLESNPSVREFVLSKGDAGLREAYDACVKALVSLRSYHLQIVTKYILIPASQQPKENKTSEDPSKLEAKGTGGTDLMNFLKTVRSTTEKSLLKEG

Work on `COCCN(c1ccc(C(COC)CC(=O)O)cc1Nc1ccc(Cl)cc1)C1CCOCC1` (single isomer, unassigned) [Example 256 Enantiomer 2, 3-(3-((4-Chlorophenyl)amino)-4-((2-methoxyethyl)(tetrahydro-2H-pyran-4-yl)amino)phenyl)-4-methoxybutanoic acid] yielded an IC50 of under 0.005 µM.

Compound `COCCN(c1ccc(C(COC)CC(=O)O)cc1Nc1ccc(C#N)cc1)C1CCOCC1` (single isomer, unassigned) [Example 259, 3-(3-((4-cyanophenyl)amino)-4-((2-methoxyethyl)(tetrahydro-2H-pyran-4-yl)amino)phenyl)-4-methoxybutanoic acid] has an IC50 of under 0.05 µM.

`COCCN(c1ccc(C(COC)CC(=O)O)cc1Nc1ccc(F)cc1)C1CCOCC1` (single isomer, unassigned) [Example 260, 3-(3-((4-fluorophenyl)amino)-4-((2-methoxyethyl)(tetrahydro-2H-pyran-4-yl)amino)phenyl)-4-methoxybutanoic acid] showed an IC50 of under 0.05 µM.

In the case of `COCCN(c1ccc(C(COC)CC(=O)O)cc1NC(=O)Nc1ccc(C)cc1)C1CCOCC1` (single isomer, unassigned) [Example 261 Enantiomer 2, 4-Methoxy-3-(4-((2-methoxyethyl)(tetrahydro-2H-pyran-4-yl)amino)-3-(3-(p-tolyl)ureido)phenyl)butanoic acid], the IC50 is reported as over 0.05 µM.

Work on `COCCN(c1ccc(C(COC)CC(=O)O)cc1NC(=O)Nc1ccc(Cl)cc1F)C1CCOCC1` (single isomer, unassigned) [Example 263, 3-(3-(3-(4-chloro-2-fluorophenyl)ureido)-4-((2-methoxyethyl)(tetrahydro-2H-pyran-4-yl)amino)phenyl)-4-methoxybutanoic acid] yielded an IC50 of over 0.05 µM.

For `CCC(CC(=O)O)c1ccc(N(CC(F)F)C2CCOCC2)c(Nc2ccc(Cl)cc2)c1` (single isomer, unassigned) [Example 318 Enantiomer 2, 3-(3-((4-Chlorophenyl)amino)-4-((2,2-difluoroethyl)(tetrahydro-2H-pyran-4-yl)amino)phenyl)pentanoic acid], the IC50 was under 0.005 µM.

In the case of `COCC(CC(=O)O)c1ccc(N(CC(F)F)C2CCOCC2)c(Nc2ccc(Cl)cc2)c1` (single isomer, unassigned) [Example 321 Enantiomer 2, 3-(3-((4-Chlorophenyl)amino)-4-((2,2-difluoroethyl)(tetrahydro-2H-pyran-4-yl)amino)phenyl)-4-methoxybutanoic acid], the IC50 is reported as under 0.005 µM.

Work on `COCC(CC(=O)O)c1ccc(N(CC(F)F)C2CCOCC2)c(Nc2ccc(C#N)cc2)c1` (single isomer, unassigned) [Example 323] yielded an IC50 of under 0.005 µM.

In the case of `CCC(CC(=O)O)c1ccc(N(CC)C2CCS(=O)(=O)CC2)c(Nc2ccc(Cl)cc2)c1` (single isomer, unassigned) [Example 334 Enantiomer 2, 3-(3-((4-Chlorophenyl)amino)-4-((1,1-dioxidotetrahydro-2H-thiopyran-4-yl)(ethyl)amino)phenyl)pentanoic acid], the IC50 is reported as under 0.005 µM.

For `CCN(c1ccc(C(CC(=O)O)C2CC2)cc1Nc1ccc(OC)nc1)C1CCS(=O)(=O)CC1` (single isomer, unassigned) [Example 346, 3-cyclopropyl-3-(4-((1,1-dioxidotetrahydro-2H-thiopyran-4-yl)(ethyl)amino)-3-((6-methoxypyridin-3-yl)amino)phenyl)propanoic acid], the IC50 was under 0.05 µM.

`CCN(c1ccc(C(CC(=O)O)C2CC2)cc1Nc1ccc(F)cc1)C1CCS(=O)(=O)CC1` (single isomer, unassigned) [Example 347, 3-cyclopropyl-3-(4-((1,1-dioxidotetrahydro-2H-thiopyran-4-yl)(ethyl)amino)-3-((4-fluorophenyl)amino)phenyl)propanoic acid] was tested, and the IC50 was under 0.005 µM.

For `CCN(c1ccc([C@H](COC)CC(=O)O)cc1Nc1ncc(F)cc1F)C1CCOCC1` (single isomer, unassigned) [Example 395], the IC50 was over 0.05 µM.

Work on `CCN(c1ccc([C@H](COC)CC(=O)O)cc1Nc1ccc(C)cc1)C1CCOCC1` (single isomer, unassigned) [Example 410] yielded an IC50 of under 0.05 µM.

Work on `CCN(c1ccc([C@H](COC)CC(=O)O)cc1Nc1ccc(Cl)cc1)C1CCOCC1` (single isomer, unassigned) [Example 413] yielded an IC50 of under 0.005 µM.

Compound `CCN(c1ccc(C(COC)CC(=O)O)cc1NC(=O)Nc1ccc(C#N)cc1)C1CCOCC1` (single isomer, unassigned) [Example 422 E2] has an IC50 of over 0.05 µM.

`CC[C@@H](CC(=O)O)c1ccc(N(CC)C2CCOCC2)c(Nc2ccc(Cl)cn2)c1` (single isomer, unassigned) [Example 460] was tested, and the IC50 was under 0.005 µM.

For `CC[C@H](CC(=O)O)c1ccc(N(CC)C2CCOCC2)c(Nc2ccc(C#N)cn2)c1` (single isomer, unassigned) [Example 504], the IC50 was under 0.005 µM.

In the case of `CCCN(c1ccc([C@@H](COC)CC(=O)O)cc1Nc1cnc(OCC2CC2)nc1)C1CCOCC1` (single isomer, unassigned) [Example 543], the IC50 is reported as under 0.005 µM.

`CCCOc1ncc(Nc2cc(C(C)CC(=O)O)ccc2N(CC)C2CCOCC2)cn1` (single isomer, unassigned) [Example 634, 3-(4-(ethyl(tetrahydro-2H-pyran-4-yl)amino)-3-((2-propoxypyrimidin-5-yl)amino)phenyl)butanoic acid] gave an IC50 of under 0.05 µM.

In the case of `CCN(c1ccc(C(C)CC(=O)O)cc1Nc1cnc(OC(C)C)nc1)C1CCOCC1` (single isomer, unassigned) [Example 635, 3-(4-(ethyl(tetrahydro-2H-pyran-4-yl)amino)-3-((2-isopropoxypyrimidin-5-yl)amino)phenyl)butanoic acid], the IC50 is reported as over 0.05 µM.

Work on `CCOc1ncc(Nc2cc(C(CC)CC(=O)O)ccc2N2CCN(C(=O)OC)CC2)cn1` (single isomer, unassigned) [Example 670, 3-(3-((2-Ethoxypyrimidin-5-yl)amino)-4-(4-(methoxycarbonyl)piperazin-1-yl)phenyl)pentanoic acid] yielded an IC50 of over 0.05 µM.

With `CCOc1ncc(Nc2cc(C(CC)CC(=O)O)ccc2N2CCNCC2)cn1` (single isomer, unassigned) [Example 673] the IC50 was over 0.05 µM.

`CC(CC(=O)O)c1ccc(N2C[C@@H](C)O[C@@H](C)C2)c(NC(=O)Nc2ccc(C#N)cc2)c1` (single isomer, unassigned) [Example 752] gave an IC50 of over 0.05 µM.

Compound `Cc1ccc(NC(=O)Nc2cc(C(C)CC(=O)O)ccc2N2C[C@@H](C)O[C@@H](C)C2)cc1` (single isomer, unassigned) [Example 753] has an IC50 of over 0.05 µM.

Compound `CCN(c1cc(F)c([C@@H](COC)CC(=O)O)cc1Nc1ccc(Cl)cc1)C1CCOCC1` (single isomer, unassigned) [Example 844, 3-(5-((4-Chlorophenyl)amino)-4-(ethyl(tetrahydro-2H-pyran-4-yl)amino)-2-fluorophenyl)-4-methoxybutanoic acid] has an IC50 of under 0.005 µM.

With `CCC(CC(=O)O)c1cc(Nc2ccc(Cl)cc2)c(N(CC)C2CCOCC2)cc1F` (single isomer, unassigned) [Example 861, 3-(5-((4-Chlorophenyl)amino)-4-(ethyl(tetrahydro-2H-pyran-4-yl)amino)-2-fluorophenyl)pentanoic acid] the IC50 was under 0.005 µM.

`CCC(CC(=O)O)c1cc(Nc2cnc(OCC3CC3)nc2)c(N(CC)C2CCOCC2)cc1F` (single isomer, unassigned) [Example 863, 3-(5-((2-(cyclopropylmethoxy)pyrimidin-5-yl)amino)-4-(ethyl(tetrahydro-2H-pyran-4-yl)amino)-2-fluorophenyl) pentanoic acid] showed an IC50 of under 0.005 µM.

Work on `CCC(CC(=O)O)c1cc(Nc2cnc(OC)nc2)c(N(CC)C2CCOCC2)cc1F` (single isomer, unassigned) [Example 864, 3-(4-(ethyl(tetrahydro-2H-pyran-4-yl)amino)-2-fluoro-5-((2-methoxypyrimidin-5-yl)amino)phenyl)pentanoic acid] yielded an IC50 of under 0.005 µM.

Compound `CCOc1ncc(Nc2cc(C(CC)CC(=O)O)c(F)cc2N(CC)C2CCOCC2)cn1` (single isomer, unassigned) [Example 865, 3-(5-((2-ethoxypyrimidin-5-yl)amino)-4-(ethyl (tetrahydro-2H-pyran-4-yl)amino)-2-fluorophenyl) pentanoic acid] has an IC50 of under 0.005 µM.

`CCOc1ncc(Nc2cc(C(CC)CC(=O)O)ccc2N(C)C2CCOCC2)cn1` (single isomer, unassigned) [Example 872, 3-(3-((2-ethoxypyrimidin-5-yl)amino)-4-(methyl (tetrahydro-2H-pyran-4-yl)amino)phenyl)pentanoic acid] gave an IC50 of under 0.05 µM.

`COCC(CC(=O)O)c1ccc(N(C)C2CCOCC2)c(Nc2ccc(C#N)cc2)c1` (single isomer, unassigned) [Example 880, 3-(3-((4-Cyanophenyl)amino)-4-(methyl(tetrahydro-2H-pyran-4-yl)amino)phenyl)-4-methoxybutanoic acid] showed an IC50 of under 0.05 µM.

`COCC(CC(=O)O)c1ccc(N(C)C2CCOCC2)c(Nc2ccc(C#N)c(F)c2)c1` (single isomer, unassigned) [Example 882, 3-(3-((4-cyano-3-fluorophenyl)amino)-4-(methyl(tetrahydro-2H-pyran-4-yl)amino)phenyl)-4-methoxybutanoic acid] gave an IC50 of under 0.05 µM.

`COCC(CC(=O)O)c1ccc(N(C)C2CCOCC2)c(Nc2ccc(C#N)cc2F)c1` (single isomer, unassigned) [Example 883, 3-(3-((4-cyano-2-fluorophenyl)amino)-4-(methyl(tetrahydro-2H-pyran-4-yl)amino)phenyl)-4-methoxybutanoic acid] was tested, and the IC50 was under 0.05 µM.
